In patent publication US6875768B1, “Phthalamide derivatives, intermediates in the production thereof, and agricultural/horticultural insecticides and method for using the same” (Nihon Nohyako Co., Ltd., priority 1999, dated 2005):

Experiments:
[1] = system: rice leafroller (Cnaphalocrosis medinalis); details: 500 ppm; rice lamina immersed about 30 seconds; third-instar larvae; four days after the inoculation; 25° C., humidity 70%
Protocol: Insecticidal effect on rice leafroller (Cnaphalocrosis medinalis)
After air-dryness, the lamina was placed in a plastic Petri dish with a diameter of 9 cm whose bottom had been covered with a wetted filter paper. The lamina was inoculated with third-instar larvae of rice leafroller, after which the dish was allowed to stand in a room thermostatted at 25° C. and having a humidity of 70%. Four days after the inoculation, the dead and alive were counted and the insecticidal effect was judged according to the criterion shown in Test Example 1. The test was carried out with triplicate groups of 10 insects.

[2] = system: diamond back moth (Plutella xylostella); assay type: in vivo; details: 1,000 ppm; Chinese cabbage seedling with eggs immersed about 30 seconds; counted six days after the immersion; 25° C.
Excerpt: Insecticidal effect on diamond back moth (Plutella xylostella)
Adult diamond back moths were released and allowed to oviposit on a Chinese cabbage seedling. […] Six days after the immersion, the hatched insects were counted. […] [formula] Criterion • A - - - Mortality 100% • B - - - Mortality 99-90% • C - - - Mortality 89-80% • D - - - Mortality 79-50%

[3] = system: Common cutworm (Spodoptera litura); assay type: in vivo; details: 500 ppm; cabbage leaf immersed about 30 seconds; second-instar larvae; eight days after the inoculation; 25° C.
Excerpt: Insecticidal Effect on Common cutworm (Spodoptera litura)

Row | Compound | insecticidal effect (activity ranking by mortality) [1] | insecticidal effect (activity ranking by mortality) [2] | insecticidal effect (activity ranking by mortality) [3]
1 | CC(C)NC(=O)c1ccccc1C(=O)Nc1ncc(C(F)(F)F)cc1Cl [Q26-1] | B or higher | B or higher | B or higher
2 | CCN(CC)C(=O)c1c(I)cccc1C(=O)Nc1ncc(C(F)(F)C(F)(F)F)cc1C [Q26-29] | B or higher | B or higher | B or higher
3 | CCN(CC)C(=O)c1c(I)cccc1C(=O)Nc1ncc(C(F)(F)C(F)(F)C(F)(F)F)cc1C [Q26-30] | B or higher | B or higher | B or higher
4 | CCN(CC)C(=O)c1c(I)cccc1C(=O)Nc1ncc(C(F)(C(F)(F)F)C(F)(F)F)cc1C [Q26-31] | B or higher | B or higher | B or higher
5 | CCN(CC)C(=O)c1c(I)cccc1C(=O)Nc1ccc(Cl)cn1 [Q26-32] | B or higher | B or higher | B or higher
6 | CCN(CC)C(=O)c1c(I)cccc1C(=O)Nc1ccc(Br)cn1 [Q26-33] | B or higher | B or higher | B or higher
7 | CC(C)NC(=O)c1c(Cl)cccc1C(=O)Nc1ccc(Oc2ccc(Br)cc2)nc1 [Q27-29] | B or higher | B or higher | B or higher
8 | CC(C)NC(=O)c1c(Cl)cccc1C(=O)Nc1ccc(Oc2ccc(Cl)cc2Cl)nc1 [Q27-30] | B or higher | B or higher | B or higher
9 | CC(C)NC(=O)c1c(Cl)cccc1C(=O)Nc1cnccc1SC(C)C [Q27-31] | B or higher | B or higher | B or higher
10 | CC(C)CSc1ccncc1NC(=O)c1cccc(Cl)c1C(=O)NC(C)C [Q27-32] | B or higher | B or higher | B or higher
11 | Cc1cc(Cl)ncc1NC(=O)c1cccc(Cl)c1C(=O)NC(C)C [Q27-81] | B or higher | B or higher | B or higher
12 | Cc1cc(Oc2ccc(Br)cc2)ncc1NC(=O)c1cccc(Cl)c1C(=O)NC(C)C [Q27-98] | B or higher | B or higher | B or higher
13 | CC(C)NC(=O)c1cccc(Cl)c1C(=O)Nc1ccc(Oc2ccc(Br)cc2)nc1 [Q27-124] | B or higher | B or higher | B or higher
14 | CC(C)NC(=O)c1cccc(Cl)c1C(=O)Nc1ccc(Oc2ccc(Cl)cc2Cl)nc1 [Q27-125] | B or higher | B or higher | B or higher
15 | CC(C)NC(=O)c1cccc(Cl)c1C(=O)Nc1ccc(SC(C)C)nc1 [Q27-126] | B or higher | B or higher | B or higher
16 | CC(C)CSc1ccc(NC(=O)c2c(Cl)cccc2C(=O)NC(C)C)cn1 [Q27-127] | B or higher | B or higher | B or higher
17 | Cc1cc(Cl)ncc1NC(=O)c1c(Cl)cccc1C(=O)NC(C)C [Q27-128] | B or higher | B or higher | B or higher
18 | Cc1nc(OC(C(F)(F)F)C(F)(F)F)ccc1NC(=O)c1cccc(Cl)c1C(=O)NC(C)C [Q27-297] |  | B or higher | B or higher
19 | Cc1nc(OC(C(F)(F)F)C(F)(F)F)ccc1NC(=O)c1cccc(Cl)c1C(=O)NC(C)(C)C [Q27-298] |  | B or higher | B or higher
20 | Cc1nc(OC(C(F)(F)F)C(F)(F)F)ccc1NC(=O)c1ccc(Cl)c(Cl)c1C(=O)NC(C)C [Q27-332] |  | B or higher | B or higher

Row | Compound | insecticidal effect (activity ranking by mortality) [1] | insecticidal effect (activity ranking by mortality) [2] | insecticidal effect (activity ranking by mortality) [3]
21 | CSCC(C)NC(=O)c1c(C(=O)Nc2ccc(OC(C(F)(F)F)C(F)(F)F)nc2C)ccc(Cl)c1Cl (stereo not shown) [Q27-334] |  | B or higher | B or higher
22 | Cc1nc(OC(C(F)(F)F)C(F)(F)F)ccc1NC(=O)c1ccc(Cl)c(Cl)c1C(=O)NC(C)C[S+](C)[O-] (stereo not shown) [Q27-335] |  | B or higher | B or higher
23 | Cc1nc(OC(C(F)(F)F)C(F)(F)F)ccc1NC(=O)c1cccc([N+](=O)[O-])c1C(=O)NC(C)C [Q27-347] |  | B or higher | B or higher
24 | CSCC(C)(C)NC(=O)c1c(C(=O)Nc2ccc(OC(C(F)(F)F)C(F)(F)F)nc2C)cccc1[N+](=O)[O-] [Q27-352] |  | B or higher | B or higher
25 | Cc1nc(OC(C(F)(F)F)C(F)(F)F)ccc1NC(=O)c1cccc([N+](=O)[O-])c1C(=O)NC(C)(C)CS(C)(=O)=O [Q27-353] |  | B or higher | B or higher
26 | Cc1nc(OC(C(F)(F)F)C(F)(F)F)ccc1NC(=O)c1cccc(C(F)(F)F)c1C(=O)NC(C)C [Q27-354] |  | B or higher | B or higher
27 | Cc1nc(OC(C(F)(F)F)C(F)(F)F)ccc1NC(=O)c1cccc(C(F)(F)F)c1C(=O)NC(C)(C)C [Q27-355] |  | B or higher | B or higher
28 | CSCC(C)(C)NC(=O)c1c(C(=O)Nc2ccc(OC(C(F)(F)F)C(F)(F)F)nc2C)cccc1C(F)(F)F [Q27-359] |  | B or higher | B or higher
29 | Cc1nc(OC(C(F)(F)F)C(F)(F)F)ccc1NC(=O)c1cccc(C(F)(F)F)c1C(=O)NC(C)(C)C[S+](C)[O-] (stereo not shown) [Q27-360] |  | B or higher | B or higher
30 | Cc1nc(OC(F)(F)C(F)F)ccc1NC(=O)c1cccc(I)c1C(=O)NC(C)C [Q27-378] |  | B or higher | B or higher
31 | CSCC(C)(C)NC(=O)c1c(I)cccc1C(=O)Nc1ccc(OC(F)(F)C(F)F)nc1C [Q27-384] |  | B or higher | B or higher
32 | CC(C)NC(=O)c1c(I)cccc1C(=O)Nc1ccc(OC(F)(F)C(F)F)nc1Cl [Q27-387] |  | B or higher | B or higher
33 | CSCC(C)(C)NC(=O)c1c(I)cccc1C(=O)Nc1ccc(OC(F)(F)C(F)F)nc1Cl [Q27-388] |  | B or higher | B or higher
34 | Cc1nc(OC(F)(F)C(F)OC(F)(F)C(F)(F)C(F)(F)F)ccc1NC(=O)c1cccc(I)c1C(=O)NC(C)C (stereo not shown) [Q27-397] |  | B or higher | B or higher
35 | CSCC(C)NC(=O)c1c(I)cccc1C(=O)Nc1ccc(OC(F)(F)C(F)OC(F)(F)C(F)(F)C(F)(F)F)nc1Cl (stereo not shown) [Q27-407] |  | B or higher | B or higher
36 | Cc1nc(OCC(F)(F)C(F)(F)F)ccc1NC(=O)c1cccc(I)c1C(=O)NC(C)C [Q27-413] |  | B or higher | B or higher
37 | CSCC(C)NC(=O)c1c(I)cccc1C(=O)Nc1ccc(OCC(F)(F)C(F)(F)F)nc1C (stereo not shown) [Q27-414] |  | B or higher | B or higher
38 | CSCC(C)(C)NC(=O)c1c(I)cccc1C(=O)Nc1ccc(NC(=O)C(F)(F)C(F)(F)F)nc1C [Q27-439] |  | B or higher | B or higher
39 | CSCC(C)(C)NC(=O)c1c(I)cccc1C(=O)Nc1cnc(C(F)(C(F)(F)F)C(F)(F)F)nc1C [Q32-19] |  | B or higher | B or higher
40 | CCNC(=O)c1c(I)cccc1C(=O)Nc1cnc(C(F)(C(F)(F)F)C(F)(F)F)cn1 [Q34-46] |  | B or higher | B or higher
